According to article PMC6305444, “Advancement of the 5-Amino-1-(Carbamoylmethyl)-1H-1,2,3-Triazole-4-Carboxamide Scaffold to Disarm the Bacterial SOS Response” (Frontiers in Microbiology, 2018):

Key:
[1] = target: T1, LexA-S119A / Cy5-labeled SOS operator DNA (Escherichia coli, UniProt P0A7C2, S119A); experiment: Electrophoretic mobility shift assay (EMSA), LexA binding to SOS operator DNA; details: compound vs DMSO
T1 construct: made in house
Description: Increasing concentrations (0–1 μM) of LexA-S119A were mixed with 10 nM SOS operator DNA labeled with Cy5 in EMSA running buffer (70 mM Tris-HCl pH 7.5, 10 mM MgCl2, 150 mM NaCl, 5 mM DTT, 0.1 mg/ml BSA, 10 ng/μL ssDNA, 5% glycerol, 0.04% bromophenol blue) in the presence of 50 μM of compound (or DMSO carrier). After incubation at room temperature for 30 min, 20 μL of each reaction was subjected to 6% native PAGE. Gels were visualized on a Typhoon Imager using default fluorescence filter settings for Cy5. Gel bands were quantified using ImageJ (NIH, Bethesda, MD, United States) to determine the fraction of bound DNA at each LexA concentration. Data were fitted to a variable-slope sigmoidal dose-response curve.

full length E. coli LexA [2] = target: T2, full length E. coli LexA (Escherichia coli, UniProt P0A7C2); experiment: Thermal shift assay of LexA; type: binding; details: LexA 5 µM, compound 50 µM; LexA alone Tm 57.4 ± 0.4
T2 construct: a fluorescence-independent assay using a full-length version of E. coli LexA was employed; made in house
Description: (§1) Supplementary Figure 2. Binding of 14 to LexA alone. (a) Inhibition of the auto-proteolysis of 32P-labelleled full length E. coli LexA by 14 in the absence of RecA. All data represent the mean of two independent measurements and the error bars represent the range of error. The error of the IC50 value is the standard deviation of the fit of equation 1 to the data. (b) Thermal shift observed upon binding of 14 to full length E. coli LexA. The concentrations of LexA and 14 were 5 µM and 50 µM, respectively. The errors for the Tm values are the standard deviations of the fits of equation S1 to the data.
(§2) Cy5-labeled operator DNA Bound DNA
(§3) Supplementary Figure 3. LexA DNA binding activity is not impacted by 14. Varying concentrations of […]
(§4) (SOS box). The titrations were performed in the presence of DMSO or 40 μM of 14. The samples were separated on a non-denaturing polyacrylamide gel (at right) and the bound fraction calculated. […]

[3] = target: T3, full-length E. coli LexA (RecA*-induced cleavage) (Escherichia coli, UniProt P0A7C2); experiment: Orthogonal 32P-LexA cleavage assay, full-length E. coli LexA; type: biochemical
T3 construct: Full-length E. coli and P. aeruginosa LexA were engineered with a RRXS phosphorylation site on the N-terminus of the full-length protein; made in house
Description: (§5) Full-length E. coli and P. aeruginosa LexA were engineered with a RRXS phosphorylation site on the N-terminus of the full-length protein, allowing for ^32P labeling by protein kinase A to produce ^32P-LexA, as described previously ([Mo et al., 2018]). Reactions contained 100 nM ^32P-LexA, 200 nM RecA and 10 μM ATPγS and the buffer conditions were identical to those in the HTS assay. Compounds were added in DMSO and the final concentration was 2%. Reactions were incubated for 30 min at room temperature after which 2 × Laemmli buffer was added to stop the assay. The stopped reactions were subjected to 15% SDS-PAGE and the gels were visualized via phosphorimaging on a Typhoon imager (GE Healthcare Bio-Sciences, Marlborough, MA, United States). The intact and cleaved bands were quantified using Quantity One (Bio-Rad, Hercules, CA, United States) and the fraction inhibited was calculated. […] Plots of fraction inhibited against compound concentration were fitted to Equation 1.

[4] = target: T4, E. coli FlAsH-LexA (RecA-promoted LexA cleavage) (Escherichia coli, UniProt P0A7C2); experiment: biochemical
Description: (§6) IC50 values were routinely determined using the E. coli FlAsH-LexA cleavage assay previously used to perform HTS ([Mo et al., 2018]). In this assay RecA-promoted LexA cleavage is monitored using fluorescence polarization. […] Reactions were performed in 384-well plates and components were added as 10 μL additions of ATPγS, ssDNA and RecA, in buffer and 10 μL of E. coli FlAsH-LexA in buffer using a Janus liquid handler (Perkin-Elmer). Compound was added as a DMSO solution using a pin tool, and the final concentration of DMSO in the reaction was 1.2%. Once the reaction components were combined, reactions were centrifuged for 1 min at 500 rpm and incubated for 30 min at room temperature. Reactions were quenched with a 10 μL addition of 50 mM EDTA and plates were read on a Tecan Infinite F200 Pro plate reader (Tecan US, Inc., Morrisville, NC, United States). […] On each plate 32 positive (-RecA) and 32 negative controls (+RecA) in which DMSO without compound was added were used to define the range of mP and calculate the fraction inhibited.
(§7) IC50 values were estimated by non-linear least squares fitting to the data using Equation 1.
(§8) where FI = Fraction inhibited, [I] = Concentration of compound and n = Hill coefficient. Fitting was performed using Igor Pro (WaveMetrics Inc., Lake Oswego, OR, United States).

full length E. coli LexA [5] = target: T2, full length E. coli LexA; experiment: Auto-proteolysis of 32P-labelled full length E. coli LexA in the absence of RecA; type: biochemical
Description: as §1, §2, §3, §4

[6] = Solubility (inferred from titration curves in assay buffer; DMSO stocks); type: physicochemical; details: FlAsH-LexA cleavage assay buffer, aqueous buffer; suggested by normal titration curves in FlAsH-LexA assay buffer; read-out: aqueous solubility maintained up to
Text: Representative titrations for the compounds can be found in the Supplementary Figure 1.

[7] = Cytotoxicity testing with HG2 cells; type: cell-based
[8] = target: T5, full length LexA from P. aeruginosa (RecA*-mediated cleavage) (Pseudomonas aeruginosa, UniProt P37452); experiment: Orthogonal 32P-LexA cleavage assay, full-length P. aeruginosa LexA; type: biochemical
T5 construct: examining RecA^∗-mediated cleavage of full length LexA from P. aeruginosa; made in house
Description: as §5

[9] = test system: recA promoter GFP reporter (SOS response); experiment: Cell-based SOS reporter assay (GFP under recA promoter, ciprofloxacin-induced); parameters: species or system E. coli MG1655 ΔsulA ΔtolC; details: Escherichia coli, 2 h, read-out: IC50, GFP assay
Description: An E. coli MG1655 strain lacking sulA (ΔsulA) and the tolC transporter (ΔtolC) ([Mo et al., 2016]) was transformed with a reporter plasmid in which gfp expression was under the control of the recA promoter (pMS201 pRecA GFP) ([Zaslaver et al., 2006]). To perform assays overnight, cultures of the reporter strain were diluted 100-fold in M9 minimal media and grown at 37°C with agitation to an OD595 of ∼0.6. For each reaction sample 100 μL of culture were mixed with 100 μL of M9 minimal media containing ciprofloxacin (256 ng/mL). Pre-diluted compounds were added (5 μL) in DMSO and cultures were incubated at 37°C with agitation for 2 h after which the cells were fixed by adding 200 μL of phosphate buffered saline, pH 7.4 containing 1% paraformaldehyde. After 1 h of fixing, the cells were spun down at 4,000 rpm and re-suspended in phosphate buffered saline, pH 7.4. Fixed cells were analyzed using flow cytometry (BD FACSCalibur, Ex/Em: 488 nm/530 nm) and the mean fluorescence of 20,000 cells in each condition was recorded.

ΔtolC E. coli [10] = experiment: Frequency of resistance (rifampin-resistance mutation rate); type: cell-based
Description: A starter culture of ΔtolC E. coli was cultured overnight at 37°C with shaking in LB broth. The next day the culture was diluted 3 × 10^7-fold in to LB broth. The dilution was used to produce four sets of twelve cultures, each containing 1 mL. To one set was added 10 μL of deionized H2O plus 10 μL of DMSO, to the second set was added 10 μL of 125 ng/mL ciprofloxacin in deionized H2O plus 10 μL of DMSO, to the third set was added 10 μL of deionized H2O plus 10 μL of a 10 mM solution of 14 in DMSO and to the fourth set was added 10 μL of 125 ng/mL ciprofloxacin in deionized H2O plus 10 μL of 14 in DMSO.
The 48 cultures were incubated at 37°C with shaking for 48 h. To determine the population size, spot plating was performed starting with 1 μL of the cultures diluted 10^5-fold. A 100 μL aliquot of each 10^5-fold dilution was transferred to a 96-well plate and serially diluted (10-fold dilutions) into LB broth. The dilutions (5 μL) were spotted on LB agar plates and the plates were incubated overnight at 37°C. To determine the rifampin resistant population, 999 μL of each 1 mL culture was centrifuged at 6000 rpm for 10 min to remove the cells from solution and the cells were suspended in 100 μL of autoclaved 0.15 M NaCl. The 100 μL solutions were plated on the LB plates containing 100 μg/mL rifampin and incubated for 2 days at 37°C. Following counting of the colonies the program bz-rates ([Gillet-Markowska et al., 2015]) was used to estimate mutation rates.

[11] = target: T4, E. coli FlAsH-LexA (RecA-promoted LexA cleavage); details: for activity in FlAsH-LexA cleavage assay (in words): highest concentration 111 μM; for rank order of activities, ortho mono-substitution on area A phenyl: FlAsH-LexA cleavage assay
Description: as §6, §7, §8

ΔtolC E. coli [12] = experiment: MIC of ciprofloxacin; type: cell-based; details: Escherichia coli

T4 sequence (P0A7G6 2-353): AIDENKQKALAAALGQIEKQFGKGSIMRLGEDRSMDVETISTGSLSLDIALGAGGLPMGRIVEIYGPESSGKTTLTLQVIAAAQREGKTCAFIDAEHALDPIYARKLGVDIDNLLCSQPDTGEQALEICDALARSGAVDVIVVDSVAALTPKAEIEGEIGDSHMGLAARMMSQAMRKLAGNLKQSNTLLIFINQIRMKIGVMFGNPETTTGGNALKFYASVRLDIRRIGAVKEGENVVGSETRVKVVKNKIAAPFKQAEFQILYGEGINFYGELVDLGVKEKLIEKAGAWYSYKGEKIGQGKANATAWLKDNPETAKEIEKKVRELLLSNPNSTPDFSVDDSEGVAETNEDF
T4 sequence (P0A7C2 75-202): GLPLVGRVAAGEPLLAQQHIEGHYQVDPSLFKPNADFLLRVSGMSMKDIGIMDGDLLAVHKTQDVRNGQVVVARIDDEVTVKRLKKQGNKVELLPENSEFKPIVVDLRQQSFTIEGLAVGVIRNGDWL
T5 sequence (P37452 whole entry): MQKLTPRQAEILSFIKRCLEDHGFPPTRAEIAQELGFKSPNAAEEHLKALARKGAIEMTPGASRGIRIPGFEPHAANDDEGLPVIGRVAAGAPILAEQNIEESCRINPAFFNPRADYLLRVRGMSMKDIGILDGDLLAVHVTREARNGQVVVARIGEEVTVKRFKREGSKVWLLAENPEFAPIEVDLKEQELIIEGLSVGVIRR
T2 sequence (P0A7C2 whole entry): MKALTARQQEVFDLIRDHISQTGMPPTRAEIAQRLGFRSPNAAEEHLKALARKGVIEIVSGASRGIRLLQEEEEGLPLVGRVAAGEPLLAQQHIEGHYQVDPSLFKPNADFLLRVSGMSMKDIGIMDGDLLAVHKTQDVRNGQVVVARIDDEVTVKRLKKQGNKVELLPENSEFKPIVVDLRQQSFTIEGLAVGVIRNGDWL
T1 sequence (P0A7C2 whole entry S119A): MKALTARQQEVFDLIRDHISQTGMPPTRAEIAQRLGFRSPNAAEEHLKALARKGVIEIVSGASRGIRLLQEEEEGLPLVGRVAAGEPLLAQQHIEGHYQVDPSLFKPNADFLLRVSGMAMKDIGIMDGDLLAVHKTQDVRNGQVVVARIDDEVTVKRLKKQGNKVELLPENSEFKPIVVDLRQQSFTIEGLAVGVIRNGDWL
T3 sequence (P0A7C2 whole entry): as the sequence (P0A7C2 whole entry) above

Structure (SMILES) | IC50 [4] [µM] | solubility [6] [µM] | activity in FlAsH-LexA cleavage assay (in words) [11] | also measured
CCOc1ccc(NC(=O)Cn2nnc(C(=O)Nc3ccccc3)c2N)cc1 [Compound 14, 5-amino-1-{2-[(4-ethoxyphenyl)amino]-2-oxoethyl}-N-phenyl-1H-1,2,3-triazole-4-carboxamide] | 9 ± 1 | ≥ 111 |  | effect on LexA DNA binding (EMSA) [1]: not impacted; Tm (full length E. coli LexA [2]): 67.0 ± 0.1 °C; IC50 [3]: 10 ± 1 µM; IC50 (full length E. coli LexA [5]): 15.2 ± 2.5 µM; CC50 [7]: > 500 µM; IC50 [8]: 5.9 ± 0.4 µM; IC50 [9]: 32 ± 2 µM; suppression of ciprofloxacin-induced appearance of resistance to rifampicin (ΔtolC E. coli [10]; 100 μM compound): effective in reducing the appearance of resistance to rifampicin; decrease in per generation mutation rate relative to ciprofloxacin alone (ΔtolC E. coli [10]; 100 μM compound + ciprofloxacin 1.25 ng/mL, rifampin resistance, 48 h): approximately threefold; mutation rate, compound alone (ΔtolC E. coli [10]; 100 μM compound, no ciprofloxacin): comparable to DMSO alone controls
Cc1ccc(NC(=O)Cn2nnc(C(=O)Nc3ccc(C)c(C)c3)c2N)c(C)c1 [Compound 8] | 15 ± 2 | ≥ 111 | tolerated but not significantly superior to ortho-substitution alone | 
CCOC(=O)c1ccc(NC(=O)c2nnn(CC(=O)Nc3ccc(OCC)cc3)c2N)cc1 [Compound 12] | 19 ± 3 | ≥ 111 | tolerated | 
CCOc1ccc(NC(=O)Cn2nnc(C(=O)Nc3ccc(C)cc3)c2N)cc1 [Compound 11] | 15 ± 2 | ≥ 111 | allowed | 
Cc1ccc(NC(=O)c2nnn(CC(=O)NC3CCCCCC3)c2N)cc1C [Compound 4] | 22 ± 3 | ≥ 111 | returned activity | 
CCOc1ccc(NC(=O)Cn2nnc(C(=O)Nc3ccc(C)c(C)c3)c2N)cc1 [Compound 1] | 32 ± 6 | ≥ 111 |  | CC50 [7]: 277 µM; IC50 [8]: 130 ± 28 µM
Cc1cccc(NC(=O)Cn2nnc(C(=O)Nc3ccc(C)c(C)c3)c2N)c1 [Compound 6] | > 100 |  | not tolerated | 
Cc1ccc(NC(=O)c2nnn(CC(=O)Nc3ccccc3)c2N)cc1C [Compound 2] | > 100 |  | loss of activity | rank order of activities, ortho mono-substitution on area A phenyl [11]: Me (5) > Et (22) > OMe (23) > OEt (24) = H (2)
CCOc1ccc(NC(=O)Cn2nnc(C(=O)Nc3cccc(C)c3)c2N)cc1 [Compound 10] | 33 ± 4 | ≥ 111 | allowed | 
O=C(O)c1cn(C2CC2)c2cc(N3CCNCC3)c(F)cc2c1=O [ciprofloxacin, reference compound] |  |  |  | MIC (ΔtolC E. coli [12]): 5 ng/mL; mutation rate, ciprofloxacin alone (ΔtolC E. coli [10]; sub-MIC concentration 1.25 ng/mL): produced an induction of mutagenesis
Cc1ccc(NC(=O)c2nnn(CC(=O)NC3CCCCC3)c2N)cc1C [Compound 3] | 44 ± 4 | ≥ 111 | returned activity | 
Cc1ccc(NC(=O)Cn2nnc(C(=O)Nc3ccc(C)c(C)c3)c2N)cc1 [Compound 7] | 18 ± 1 | ≥ 111 |  | 
CCOc1ccc(NC(=O)Cn2nnc(C(=O)Nc3ccccc3C)c2N)cc1 [Compound 9] | > 100 |  | not tolerated | 
CCOc1ccc(NC(=O)Cn2nnc(C(=O)Nc3cccnc3)c2N)cc1 [Compound 13] | 40 ± 3 | ≥ 111 | tolerated | 
Cc1ccc(NC(=O)c2nnn(CC(=O)Nc3ccccc3C)c2N)cc1C [Compound 5] | 17 ± 2 | ≥ 111 |  | rank order of activities, ortho mono-substitution on area A phenyl [11]: Me (5) > Et (22) > OMe (23) > OEt (24) = H (2)
